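Five compound concentrations were applied to cells in 96-well plates for 48 hours; endpoints were derived by simple linear interpolation of the resulting dose-response curve. Abbreviation: GI50, concentration required for 50% inhibition of growth. The concentration for full growth arrest is given as TGI.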
Columns and labels:
Assay in all cases: NCI-60 cell line screen, 48 h
TK-10 renal = test system: TK-10 renal
HOP-62 NSCLC = test system: HOP-62 NSCLC
786-0 renal = test system: 786-0 renal
UACC-257 melanoma = test system: UACC-257 melanoma
RXF 393 renal = test system: RXF 393 renal
HCT-15 colon = test system: HCT-15 colon
NCI-H522 lung = test system: NCI-H522 lung
SF-295 CNS = test system: SF-295 CNS
HOP-92 NSCLC = test system: HOP-92 NSCLC
OVCAR-4 ovarian = test system: OVCAR-4 ovarian

Compound | GI50 (TK-10 renal) [µM] | TGI (TK-10 renal) [µM] | GI50 (HOP-62 NSCLC) [µM] | TGI (HOP-62 NSCLC) [µM] | GI50 (786-0 renal) [µM] | TGI (786-0 renal) [µM] | GI50 (UACC-257 melanoma) [µM] | TGI (UACC-257 melanoma) [µM] | GI50 (RXF 393 renal) [µM] | TGI (RXF 393 renal) [µM] | GI50 (HCT-15 colon) [µM] | TGI (HCT-15 colon) [µM] | GI50 (NCI-H522 lung) [µM] | TGI (NCI-H522 lung) [µM] | GI50 (SF-295 CNS) [µM] | TGI (SF-295 CNS) [µM] | GI50 (HOP-92 NSCLC) [µM] | TGI (HOP-92 NSCLC) [µM] | TGI (OVCAR-4 ovarian) [µM] | GI50 (OVCAR-4 ovarian) [µM]
NC(=N\N=C/c1cccc([N+](=O)[O-])c1)/C(N)=N\N=C/c1cccc([N+](=O)[O-])c1 | > 100 | > 100 | > 100 | > 100 | > 100 | > 100 | > 100 | > 100 | > 100 | > 100 | > 100 | > 100 | > 100 | > 100 | > 100 | > 100 | > 100 | > 100 |  | 
CN(C)CC/C(=N\Nc1ccccc1)c1ccccc1 |  | 41.2 |  | 31 |  | 51.2 |  |  |  | > 100 |  | 27.6 |  |  |  | 6.89 |  | 36.5 | 32.4 | 
O=C1c2ccccc2C2(O)NC(=S)N(c3ccccc3)C12O (stereo unspecified) |  | > 100 |  |  |  | > 100 |  | > 100 |  |  |  | > 100 |  | > 100 |  | > 100 |  | > 100 | > 100 | 
CC(C)C1CCC/C=C/C=C/C=C/C=C/C(OC2OC(C)C(O)C(N)C2O)CC2OC(O)(CC(O)CC(O)C(O)CCC(=O)O1)CC(O)C2C(=O)O (stereo unspecified) |  |  |  | > 52.5 |  | > 52.5 |  |  |  |  |  | > 52.5 |  | > 52.5 |  | > 52.5 |  | > 52.5 |  | 
O=C(O)CC12C3C4C5C3C1C5C42 (stereo unspecified) |  | > 100 |  | > 100 |  | > 100 |  | > 100 |  |  |  | > 100 |  | > 100 |  | > 100 |  |  | > 100 | 
COc1ccc2c(c1)OC1=C(C(=O)OC1)C2c1cc(OC)c(OC)c(OC)c1 (stereo unspecified) | > 67.7 | > 100 | 0.545 | > 100 | 0.632 | > 100 |  |  | 0.231 | 0.735 | 0.499 | > 100 | 0.273 | 2.02 | 0.279 | > 100 | 3.99 | > 100 | > 100 | 1.42
CC(C)CNc1nc(-c2ccccc2)nc2ccccc12 | 13.6 | 26.6 | 17.7 | 31.5 | 14.4 | 27.5 |  |  | 12.7 | 31.8 | > 100 | > 100 | 26.3 | > 100 | 14.5 | 28.9 | 12.3 | 28.6 | 30 | 13.5
C=C(C)CN(CC#N)CC(=C)C |  | > 100 |  | > 100 |  | > 100 |  | > 100 |  | > 100 |  | > 100 |  | > 100 |  | > 100 |  |  | > 100 | 
Cc1ccc(NC(=O)CCC/C(CC(=O)c2ccc(Br)cc2)=N/NC(=O)CC#N)cc1 |  | > 100 |  | > 100 |  | > 100 |  | > 100 |  | > 100 |  |  |  |  |  | > 100 |  | > 100 | > 100 | 
CCc1nc(N)nc(C(=O)NCCNC(=O)c2nc(N)nc(CC)c2C)c1C |  | > 100 |  | > 100 |  | > 100 |  | > 100 |  | > 100 |  | > 100 |  |  |  | > 100 |  | > 100 | > 100 | 
CCCN1CCN(c2ccc3nc(-c4ccc5nc(-c6cc(OC)ccc6OC)[nH]c5c4)[nH]c3c2)CC1 |  |  |  |  | 1.93 | 3.41 | 20 | 39.2 | 1.65 | 3.17 | 1.74 | 3.36 | 1.74 | 3.68 | 15.7 | 30.1 | 11 | 27 | 3.85 | 1.98
COc1c(Cl)c2c(c(OC)c1OC)-c1ccc(SC)c(=O)cc1[C@@H](NC(=O)OCC(F)(F)F)CC2 | 6.11 | > 100 | < 0.01 | > 100 | < 0.01 | > 30.4 | 9.61 | > 100 |  |  | < 0.01 | > 61.3 | < 0.01 | 3.46 | < 0.01 | 2.98 | < 0.0179 | 7.03 | > 100 | 0.0889
COc1cc(C(=O)C/C(CCC(=O)Nc2ccc(Cl)cc2C)=N/NC(=O)C(N)=O)ccc1O |  | > 100 |  | > 100 |  | > 100 |  | > 100 |  |  |  | > 100 |  | > 100 |  | > 100 |  | > 100 | > 100 | 
Cc1nc2cc(N)c(F)cc2[nH]1 |  | > 100 |  | > 100 |  | > 100 |  | > 100 |  | > 100 |  |  |  | > 100 |  | > 100 |  | > 100 | > 100 | 
COC1OC(C)C(O)CC1OS(=O)(=O)c1ccc(C)cc1 (stereo unspecified) |  | > 100 |  |  |  | > 100 |  | > 100 |  | > 100 |  | > 100 |  | > 100 |  | > 100 |  | > 100 | > 100 | 
CCCCc1ccc(-n2c3nc(=O)n(C)c(=O)c-3nc3ccccc32)cc1 |  | 27.5 |  | 32.6 |  | 32.1 |  | 14.5 |  | 34.1 |  | 18.3 |  | 20.2 |  | 23.1 |  |  | 22 | 
Nc1ncn(C2C=C(CO)C(O)C2O)c(=O)n1 (stereo unspecified) |  | > 100 |  | > 100 |  | > 100 |  | > 100 |  | > 100 |  | > 100 |  | > 100 |  |  |  |  | > 100 | 
O=S(=O)(c1ccc(N=C2NN=C(c3c[nH]c4ccccc34)CS2)cc1)N1CCOCC1 | 26.3 | > 100 |  |  | 2.55 | 42.3 | 9.54 | > 100 |  |  | 8.06 | > 100 | > 100 | > 100 |  |  | 3.7 | > 100 | > 100 | 15.6
Cc1cc2cc3c(C)cc(=O)oc3c(C)c2o1 |  |  |  | > 100 |  | > 100 |  | > 100 |  | > 100 |  | > 100 |  | > 100 |  | > 100 |  | > 100 | > 100 | 

Source: PubChem BioAssay (NCI)
